Eleven substances from patent US7741472B2, “Polynucleotide containing a phosphate mimetic” (Roche Diagnostics Operations, Inc., priority 2005, dated 2010) can be followed below.

In one data set the test system is human Factor V DNA. The data set can be described thus: Real time PCR with modified primers (crossing point). The class given is biochemical. The settings on record: LIGHTCYCLER 1.2, primer combinations SEQ ID NO: 1 / SEQ ID NO: 2, 640 nm channel. On the procedure:
A quantitative real time PCR of human Factor V DNA was carried out on a LIGHTCYCLER 1.2 instrument (Roche Diagnostics GmbH) in order to analyse the effect of phosphate mimetics on primer elongation. The P═N-pPh-NAc mimetic which was introduced at different positions of a primer pair used for amplification of human Factor V DNA. The modified primers were, synthesized according to example 4. Purification was done by the Reversed Phase chromatography of example 3 in the Trityl on mode. Detritylation was performed by treating with 80% acetic acid for 20 min.
This primers were used in combination with a pair of fluorescein/LIGHTCYCLER Red 640 FRET hybridization probes according to example 6. The Fluorescein probe and the 5′ LIGHTCYCLER Red 640 probe (SEQ ID NO: 3 and 4) were kept constant. Various combinations of modified and unmodified primers were tested. As reference unmodified primers were used. The effect on the crossing point which is a measure for the amplification efficiency was evaluated.
The real time monitoring was carried out over 45 cycles using the 2nd derivative threshold method in which, the fluorescence signal was measured in a detection channel that is specific for the LIGHTCYCLER Red 640 emission (at 640 nm) and the arithmetic background correction mode was used to normalize the initial signal.
The absolute fluorescence signals are measured as above in the 640 nm channel and subsequently the first derivative was calculated from this. The crossing points are shown in the following table as a measure for the amplification efficiency when using different modified primers.

Data set [1] relates to factor V wild type sequence. The data set can be described thus: Melting curve analysis of donor probes, wild type. It counts as binding. Particulars: melting temperature of donor probe for factor V wild type sequence; in °C (unit assumed). On the procedure:
(§1) A quantitative real time PCR of factor V DNA with subsequent melting curve analysis was carried out on a LIGHTCYCLER 1.2 instrument (Roche Diagnostics GmbH) in order to analyse the effect of phosphate mimetics on hybridization. Primers were used in combination with a pair of fluorescein/LIGHTCYCLER Red 640 FRET hybridization probes. The primers and the 5′ LIGHTCYCLER Red 640 probe were kept constant. The various 3′ fluorescein probes modified on the phosphate from example 4 and the unmodified fluorescein probe as a reference were used as FRET donor probes. The effect on the crossing point which is a measure for the amplification efficiency and the effect on the melting point were evaluated.
After the amplification a melting curve analysis was carried out according to the instructions of the LIGHTCYCLER manual (Roche Applied Sciences).
(§2) The following temperature program was used:
(§3) The absolute fluorescence signals are measured as above in the 640 nm channel and subsequently the first derivative was calculated from this.
(§4) The crossing points are shown in the following table as a measure for the amplification efficiency when using different modified donor probes.

Data set [2] has as its system factor V DNA. Description: Real time PCR of factor V DNA with modified FRET donor probes (crossing point). It counts as biochemical. Particulars: LIGHTCYCLER 1.2, 106 copies of plasmid, 200 nM FRET probes, 640 nm channel. On the procedure: as §1
20 μl of a PCR reaction mixture was prepared as follows for the amplification of a factor V DNA fragment.
106 copies of a plasmid which contains the factor V wild type gene and mutants (Gene Bank Accession No. M 014335)
500 nM each primers having the SEQ ID NO: 1 and 2
200 nM each FRET hybridization probes having the SEQ ID NO: 3 and 4
The LIGHTCYCLER DNA Master Hyb Probes Kit (Roche Applied Science, Cat. No. 2158825) was used for all other PCR components according to the manufacturer's instructions.
The following sequences were used as primers and probes: […]
The following temperature program was used for the amplification on the LIGHTCYCLER 1.2 (Roche Applied Science).
The real time monitoring was carried out over 45 cycles using the 2nd derivative threshold method in which the fluorescence signal was measured in a detection channel that is specific for the LIGHTCYCLER Red 640 emission (at 640 nm) and the arithmetic background correction mode was used to normalize the initial signal.
as §4
For orientation: Real-time PCR tracks product formation cycle by cycle.

The test system of the next data set is factor V mutant sequence. Description: Melting curve analysis of donor probes, mutant. The class given is binding. The settings on record: melting temperature of donor probe for factor V mutant sequence; in °C (unit assumed). On the procedure: A quantitative real time PCR of factor V DNA with subsequent melting curve analysis was carried out on a […] 1.2 instrument (Roche Diagnostics GmbH) in order to analyse the effect of phosphate mimetics on hybridization. Primers were used in combination with a pair of fluorescein/[…] Red 640 FRET hybridization probes. The primers and the 5′ […] Red 640 probe were kept constant. […] The effect on the crossing point which is a measure for the amplification efficiency and the effect on the melting point were evaluated.
After the amplification a melting curve analysis was carried out according to the instructions of the […] manual (Roche Applied Sciences).
as §2, §3

Data set [3] deals with factor V DNA fragment, mutant. Description: Melting curve analysis with lissamine acceptor probe, mutant. It counts as binding. Particulars: 10^6 copies. On the procedure: (§5) A teal time PCR and melting curve analysis were carried out according to example 6 for the amplification of 10^4 and 10^6 copies of a factor V DNA fragment. A fluorescein donor probe according to example 6 (SEQ ID NO: 4) which was not further modified and a FRET acceptor probe according to example 7b (SEQ ID NO: 3) were used for this.
(§6) The melting point for the wild type was determined as 64.69° C. and 56.24° C. was determined as the melting point for the mutant (10^6 copies).

Data set [4] deals with factor V DNA fragment, wild type. Description: Melting curve analysis with lissamine acceptor probe, wild type. It counts as binding. Particulars: 10^6 copies. On the procedure:
as §5, §6

Data set [5] has as its system factor V DNA. The data set can be described thus: Real time PCR of factor V DNA with fluorescein/lissamine FRET hybridization probes. Particulars: LIGHTCYCLER 2.0, 610 nm channel, unmodified fluorescein donor probe. The class given is biochemical. On the procedure:
Primers were used in combination with a pair of fluorescein/lissamine FRET hybridization probes where Lissamine (rhodamineB) acted as a FRET acceptor. Quantification curves were recorded and the cp value was determined as a function of the concentration of the target nucleic acid.
as §5
The fluorescence signal was measured in the 610 nm detection channel. The 610/530 background correction mode was used to normalize the raw signal. A cp value of 22 was determined for 10^6 copies and a cp of 26 was determined for 10^4 copies.

Strand notation (5' to 3'): a small letter for the sugar, then the base; units joined by * are phosphorothioate-linked, units joined directly phosphodiester-linked; [ ] holds rarer units or linkages, { } end groups; capitals alone tell only the bases. [RhoB] = phosphoramidate linkage P=N-S(O)2-rhodamine-B replacing P=O; [PNAc] = P=N-pPh-NAc phosphoramidate mimetic linkage (p1); {Fluorescein} = fluorescein label; d = 2'-deoxy (DNA); {P} = phosphate

As to “5′ GAGAGACATCGCCTCTGGGCTA / 5′ TGTTATCACACTGGTGCTAA: unmodified primer pair SEQ ID NO: 1 and 2, used as reference (DNA 1 GAGAGACATCGCCTCTGGGCTA; DNA 2 TGTTATCACACTGGTGCTAA; unmodified DNA) [reference compound]”, in the data set with human Factor V DNA, the “Cp (crossing point, measure for the amplification efficiency)” value amounted to 20.36.

For “5′ AATACCTGp1TATTCCTCp1GCCTGTC-fluorescein-3′: Example 4 fluorescein probe SEQ ID NO: 4, two-fold modified; p1 is a P = N-pPh-NAc mimetic (DNA dAdAdTdAdCdCdTdG[PNAc]dTdAdTdTdCdCdTdC[PNAc]dGdCdCdTdGdTdC-{Fluorescein})”, in data set [1], the Tm wt was found to be 64.28. The “Cp (crossing point, measure for the amplification efficiency)” value in the data set with factor V DNA [2] amounted to 22.26. Moreover, the Tm mt in the data set on factor V mutant sequence stood at 55.89.

Regarding “5′ AATACCTGTATTCCTCGCCTGTC-fluorescein-3′ (ref): unmodified fluorescein FRET donor probe SEQ ID NO: 4, used as a reference (DNA dAdAdTdAdCdCdTdGdTdAdTdTdCdCdTdCdGdCdCdTdGdTdC-{Fluorescein}) [reference compound]”, the Tm wt in data set [1] was 64.92. The “Cp (crossing point, measure for the amplification efficiency)” value with factor V DNA [2] was 22.11. Moreover, the Tm mt in the data set on factor V mutant sequence is listed as 56.98.

On to “5′ Ap1Ap1Tp1ACCTGTATp1Tp1Cp1CTCGCCTp1Gp1Tp1C-fluorescein-3′: Example 4 fluorescein probe SEQ ID NO: 4, multiply modified; p1 is a P = N-pPh-NAc mimetic (DNA dA[PNAc]dA[PNAc]dT[PNAc]dAdCdCdTdGdTdAdT[PNAc]dT[PNAc]dC[PNAc]dCdTdCdGdCdCdT[PNAc]dG[PNAc]dT[PNAc]dC-{Fluorescein})”, for which the Tm wt in data set [1] is listed as 61.40. In addition, the “Cp (crossing point, measure for the amplification efficiency)” value with factor V DNA [2] stood at 22.00. In addition, in the data set with factor V mutant sequence, the Tm mt was 52.83.

As to “5′ AATACCTGTATTCCTCGCCTGTp1C fluorescein-3′: Example 4 fluorescein probe SEQ ID NO: 4; p1 is a P = N-pPh-NAc mimetic (DNA dAdAdTdAdCdCdTdGdTdAdTdTdCdCdTdCdGdCdCdTdGdT[PNAc]dC-{Fluorescein})”, the Tm wt in data set [1] amounted to 64.32. Also, in the data set with factor V DNA [2], the “Cp (crossing point, measure for the amplification efficiency)” value came out at 22.61. Besides, in the data set with factor V mutant sequence, the Tm mt came to 56.26.

Consider “5′ AATACCTGTATTp1Cp1Cp1Tp1Cp1Gp1Cp1Cp1Tp1Gp1Tp1C-fluorescein-3′: Example 4 fluorescein probe SEQ ID NO: 4, multiply modified; p1 is a P = N-pPh-NAc mimetic (DNA dAdAdTdAdCdCdTdGdTdAdTdT[PNAc]dC[PNAc]dC[PNAc]dT[PNAc]dC[PNAc]dG[PNAc]dC[PNAc]dC[PNAc]dT[PNAc]dG[PNAc]dT[PNAc]dC-{Fluorescein})”, for which the Tm wt in data set [1] was 60.74. Further, in the data set on factor V DNA [2], the “Cp (crossing point, measure for the amplification efficiency)” value is listed as 21.91. In addition, the Tm mt in the data set on factor V mutant sequence is given as 52.14.

On to “5′ Ap1Ap1Tp1Ap1Cp1Cp1Tp1Gp1Tp1Ap1Tp1TCCTCGCCTGTC-fluorescein-3′: Example 4 fluorescein probe SEQ ID NO: 4, multiply modified; p1 is a P = N-pPh-NAc mimetic (DNA dA[PNAc]dA[PNAc]dT[PNAc]dA[PNAc]dC[PNAc]dC[PNAc]dT[PNAc]dG[PNAc]dT[PNAc]dA[PNAc]dT[PNAc]dTdCdCdTdCdGdCdCdTdGdTdC-{Fluorescein})”, for which the Tm wt in data set [1] is reported as 60.69. Moreover, the “Cp (crossing point, measure for the amplification efficiency)” value in the data set on factor V DNA [2] is given as 21.40. The Tm mt in the data set on factor V mutant sequence is listed as 52.19.

Regarding “5′ GAGAGACATCGCCTCTGGGCTA / 5′ TGT TAT CAC ACT p1GGT GCT AA: primer combination; p1 is a P = N-pPh-NAc mimetic”, the “Cp (crossing point, measure for the amplification efficiency)” value in the data set with human Factor V DNA came out at 21.36.

In the case of “5′ GAGAGACATCGCCTCTGGGCT p1A / 5′ TGTTATCACACTGGTGCTAA: primer combination; p1 is a P = N-pPh-NAc mimetic”, the “Cp (crossing point, measure for the amplification efficiency)” value with human Factor V DNA is recorded as 20.80.

As to “5′ Ap1ATACCTGTATTCCTCGCCTGTC fluorescein-3′: Example 4 fluorescein probe SEQ ID NO: 4; p1 is a P = N-pPh-NAc mimetic (DNA dA[PNAc]dAdTdAdCdCdTdGdTdAdTdTdCdCdTdCdGdCdCdTdGdTdC-{Fluorescein})”, in data set [1], the Tm wt is 64.80. Besides, the “Cp (crossing point, measure for the amplification efficiency)” value in the data set with factor V DNA [2] amounted to 22.51. For the same substance, the Tm mt with factor V mutant sequence is 56.80.

On to “FRET acceptor probe according to example 7b: SEQ ID NO: 3 FRET acceptor probe; p* = P = NS(O)2-rhodamine-B (DNA dA[RhoB]dGdGdGdAdTdCdTdGdCdTdCdTdTdAdCdAdGdAdTdTdAdGdAdAdGdTdAdGdTdCdCdTdAdTdT-{P})”, for which the “melting point for the mutant” value in data set [3] came to 56.24 °C. The “melting point for the wild type” value in data set [4] came to 64.69 °C. In addition, the cp value in the data set on factor V DNA [5] (10^4 copies) is 26; in the data set on factor V DNA [5] (10^6 copies), 22.
